Test [1] deals with T1, IRAK4 (Homo sapiens, UniProt Q9NWZ3).
T1 construct: endogenous in cells; host or cells: OCI-Ly10
T1 sequence (Q9NWZ3 1-460): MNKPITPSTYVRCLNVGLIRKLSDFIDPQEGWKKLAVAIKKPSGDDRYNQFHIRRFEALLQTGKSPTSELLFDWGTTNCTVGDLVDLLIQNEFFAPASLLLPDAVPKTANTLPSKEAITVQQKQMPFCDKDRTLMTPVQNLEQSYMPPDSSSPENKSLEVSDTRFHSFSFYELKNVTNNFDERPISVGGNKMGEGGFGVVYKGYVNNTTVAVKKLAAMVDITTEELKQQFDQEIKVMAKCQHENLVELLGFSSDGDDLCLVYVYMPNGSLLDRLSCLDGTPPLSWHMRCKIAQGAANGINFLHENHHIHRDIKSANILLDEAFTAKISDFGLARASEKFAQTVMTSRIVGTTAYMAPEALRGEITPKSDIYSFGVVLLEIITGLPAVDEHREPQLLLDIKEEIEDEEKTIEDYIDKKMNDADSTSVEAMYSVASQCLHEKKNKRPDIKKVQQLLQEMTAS
The test is described as follows: IRAK4 degradation in OCI-LY10 xenograft tumors (UPLC-MS/MS, tumor PD). The format is in vivo. The following applies: for IRAK4 (% Deg): tumor PD, after 5d dosing. On the procedure: At termination: At pre-determined time points based on study design, animals were humanely sacrificed by CO2. Blood was obtained by cardiac puncture for isolation of plasma, any residual tumor was removed and divided in 2 portions, 1 (minimal) for terminal compound exposure and 1 to determine IRAK4 and actin. Compound was determined in tumor and plasma using LC/MS with calibrated standards.
Interleukin-1 receptor-associated kinase 4 (IRAK4) was quantified in human OCI-LY10 xenograft tumors, together with mouse splenocytes and peripheral blood mononuclear cells (PBMCs), by ultra-performance liquid chromatography-tandem mass spectrometry (UPLC-MS/MS). The concentrations of IRAK4 were normalized by the concentrations of actin in the respective samples. The tumors, splenocytes and PBMCs were lysed in tissue protein extraction reagent (T-PER, ThermoFisher). The samples were centrifuged at 10,000 rpm for 10 minutes. The supernatant (cell lysate) was transferred to another tube. The cell lysates were denatured, reduced, and alkylated with iodoacetamide. The alkylated samples were treated with trypsin to generate the IRAK4 peptide LAVAIK and the actin peptide GYSFTTTAER. These peptides are unique and specific to IRAK4 and actin, respectively, in human, rat and mouse cells and tissues due to sequence conservation between these species.
Signature peptide concentrations were quantitated using a sensitive and specific targeted LC-MS/MS method. Corresponding mass-shifted, stable isotope-labeled peptides (LAV(d8)AIK and GYSF(d8)TTTAE(d6)R) were used as internal standards (ISs). Calibration standards and were prepared fresh on the day of analysis by diluting synthetic LAVAIK and […] peptides into 0.1% formic acid in 90/10 water acetonitrile (v/v). The standards and study samples) were aliquoted into a 96-well plate and mixed with IS spiking solution. The sample plate was covered with heating foil.
Signature peptide levels (LAVAIK, GYSFTTTAER) were quantified by UPLC-MS/MS. Injections were made using a Shimadzu ultra performance liquid chromatograph (UPLC) platform. Mobile phase A was 0.1% formic acid in water. Mobile phase B was 0.1% formic acid in 90:10 acetonitrile/water (v/v). A SCIEX TripleTOF 6600 LC-MS/MS system was used for the detection and quantitation of analytes. The intensities of the analytes and ISs were determined by integration of extracted ion peak areas using Analyst and MultiQuant 3.0 software. Calibration curves were prepared by plotting the analyte to IS peak area ratio vs. concentration. The model for the calibration curves was linear with 1/x^2 weighting. […] Measured peptide levels were corrected for sample work up and converted to actual protein concentrations in ng/mg total protein of cell lysate. […]

The target of test [2] is T1, IRAK4. The test is described as follows: Deep proteomics / degradation time course in OCI-Ly10 (FIG. 8). It is filed as cell-based. The following applies: OCI-Ly10, between 16-24 h post treatment. From the text:
FIG. 8 depicts deep proteomics scatterplots showing degradation of IRAK4 and IMiD substrates in OCI-Ly10 using Compound A. Type 1 IFN signaling was activated in OCI-Ly10 MYD88^MT DLBCL.

The structures appear in SMILES notation.

As to `CC(C)(O)c1cc2nc([C@H]3CC[C@H](CN4CC5(CC(CCNc6cccc7c6C(=O)N(C6CCC(=O)NC6=O)C7=O)C5)C4)CC3)sc2cc1NC(=O)c1cccc(C(F)(F)F)n1` (some centres unmarked) [Compound A, N-(2-((1r,4r)-4-((6-(2-((2-(2,6-dioxopiperidin-3-yl)-1,3-dioxoisoindolin-4-yl)amino)ethyl)-2-azaspiro[3.3]heptan-2-yl)methyl)cyclohexyl)-5-(2-hydroxypropan-2-yl)benzo[d]thiazol-6-yl)-6-(trifluoromethyl)picolinamide], the “tumor PD effect” value at IRAK4 [1] (following a single dose, FIG. 4) is on record as “sustained PD effect”. Further, the “IRAK4 (% Deg)” value was 16% on IRAK4 [1] (3 mpk), 75% on IRAK4 [1] (10 mpk) and 83% on IRAK4 [1] (30 mpk). Also, the “degradation of IRAK4 (time course)” value at IRAK4 [2] is more than 80%.
